Source: patent publication US11202821B2, “Glucose oxidase compositions” (VEGANUTRITECH LLP, priority 2016, dated 2021)
Where “and” joins values, the source holds several entries; their conditions need not be identical. Equal values may be shown once.

Tests used:
[1] = Glucose tolerance test on healthy volunteers; type: in vivo, human
Description: The data is as provided under table 21 and reflects that the sweetener compositions of the present invention are safer to use even for healthy individuals as compared to artificial sweeteners.
Observations of glucose tolerance test on healthy volunteers were made after the consumption of the sweetener composition containing glucose oxidase enzyme, as per the embodiment of the present invention and in comparison, to known artificial sweetener product having artificial sweetener sucralose and bulking agent dextrose monohydrate.

[2] = Calorific value by Bomb calorimeter; type: physicochemical
Description: Known sweetener compositions based on artificial sweeteners such as sucralose or Acesulfame K along with natural sugar substitute compositions including stevia, sugar, glucose and sucrose, were compared with the sweetener or the nutraceutical compositions containing glucose oxidase enzyme for their calorific values. The calorific values are determined using Bomb calorimeter.

[3] = Effect on body weight and muscle mass in type 2 diabetic patients; type: in vivo, human; settings: type 2 diabetic patient, dose 25 gms per day
Description: Six type 2 diabetic patients were randomly administered the Glucose oxidase containing sweetener composition as per the embodiment of the present invention for […], 5 patients were administered sugar and compositions containing natural sugar substitute (stevia based) based sweeteners, or artificial sweeteners based on Sucralose or Acem or compositions containing dietary fibres with saccharides, dietary fibres with sugar alcohols and dietary fibres with sugar alcohols and saccharides, the details of which are as set forth in the Table below. One patient was not given any composition. Before the onset of the study (week 0) and after 2 months, weight measurements were taken.

[4] = test system: buccal epithelial cells; experiment: Non invasive micronucleus assay for oxidative stress in diabetic individuals; type: in vivo, human; settings: dose 40 gms (0.005 gms for the drugs)
Description: Known pharmaceutical/nutraceutical compositions as well as other artificial sweeteners were compared to the pharmaceutical composition including the glucose oxidase enzyme of the invention for controlling oxidative stress in diabetic individuals.
Micronucleus is a small nucleus (also known as erratic or third nucleus), present in the cytoplasm of the cell. Formation of micronuclei indicates oxidative stress and genetic damage. The micronucleus assay using scraped buccal epithelial cells is an easy and non-invasive assay to estimate oxidative stress.
The results of the Non Invasive Micronucleus Assay, using buccal epithelial cells were tabulated as follows: […]

In the case of O.O=C[C@H](O)[C@@H](O)[C@H](O)[C@H](O)CO [Dextrose monohydrate], the “Blood Sugar After 2 hrs” value ([1]; 2 hrs after 75 gms in 200 ml of water, individual values, monohydrate) is reported as 141 and 149 (3×) and 160 (3×) and 156 (2×) and 170 and 175 and 150 and 145 and 158 and 169 and 154 and 159 and 157 and 164 and 161, the “Blood Sugar After 2 hrs, Average/20 respondents” value ([1]; after 2 hrs, 75 gms in 200 ml of water, average of 20 respondents) is reported as “dents- 157.1” and the “Blood Sugar Initial” value ([1]; before drinking 75 gms in 200 ml of water, individual values, monohydrate) is reported as 80 and 79 and 97 and 96 and 100 (2×) and 105 (2×) and 104 (2×) and 86 and 89 and 98 and 102 (2×) and 87 and 95 and 99 and 103 and 93. For the same compound, the “Blood Sugar Initial, Average/20 respondents” value ([1]; initial, average of 20 respondents) was “dents- 92.2”.
OC[C@H]1OC(O)[C@H](O)[C@@H](O)[C@@H]1O (stereo partly drawn) [Glucose] showed a Calories/100 g [2] of 400 Calories/100 g.
In the case of OC[C@H]1O[C@H](O[C@]2(CCl)O[C@H](CCl)[C@@H](O)[C@@H]2O)[C@H](O)[C@@H](O)[C@H]1Cl [Sucralose], the “Glycemic Response” value ([1]; conclusion in words) is reported as “respond almost in the same manner as that of Glucose”.
For OC[C@H]1O[C@@](CO)(O[C@H]2O[C@H](CO)[C@@H](O)[C@H](O)[C@H]2O)[C@@H](O)[C@@H]1O [Sugar], the Calories/100 g [2] was 400 Calories/100 g, the “Initial Body weight” value ([3]; baseline (week 0)) was 60 Kgs and the “Body weight (after two months)” value [3] was 62.5 Kgs. The “Muscle mass increase in % over three months” value [3] was “No change”, the “Oxidative stress Values (% of cells containing micronuclei) before administration” value ([4]; baseline) was 5.0 % of cells containing micronuclei and the “Oxidative stress Values (% of cells containing micronuclei) one month after administration” value [4] was 7 % of cells containing micronuclei.
